# Read-outs that look alike come from different tables or passages of the source.
# Legend:
# NCI-H1703 cells = assay: GLS Cell Proliferation Assay (NCI-H1703 cell proliferation); assay type: cell-based
# Source text: (§1) The following assays were used to measure the effects of the compounds described herein: a) GLS Enzyme Potency Assay; b) GLS Cell Potency Assay; c) GLS Cell Proliferation Assay. During the description of the assays, generally: • i. The following abbreviations have been used: CO2=Carbon dioxide; DMEM=Dulbecco's Modified Eagle Medium; DMSO=Dimethyl sulphoxide; EDTA=Ethylenediaminetetraacetic acid; EGTA=Ethylene glycol tetraacetic acid; FCS=Foetal calf serum; h=Hour(s); NBS=Non-binding surface; SDS=Sodium dodecyl sulphate; TRIS=Tris(Hydroxymethyl)aminomethane. • ii. IC50 values were calculated using a smart fitting model in Genedata.
# Assay c): GLS Cell Proliferation Assay
# The ability of compounds to inhibit cell growth was measured using a 384 well plate NCI-H1703 cell proliferation assay. NCI-H1703 cells were grown in phenol red free RPMI1640, 10% FCS and 2 mM glutamine and seeded at a density of 750 cells per well in 40 μl of growth medium into clear-bottom 384 well assay plates (Corning product code 3712) and incubated for 24 h at 37° C., 5% CO2. Test compounds were prepared by dilution in 100% DMSO to give the correct dose range for 12 point concentration response and an appropriate volume (5-120 nl) dispensed directly into the assay plates containing plated cells. DMSO concentration was maintained at 0.3% by back filling with DMSO solution. Plates were incubated for 5 days at 37° C., 5% CO2, Sytox Green and Saponin added to final concentration of 2 μM and 0.25% respectively and incubated for 6 h prior to analysis. Plates were read on an Acumen eX3 (TTP Labtech) using 488 nm excitation and FITC filter set (500-530 nm) for emission. IC50 values were calculated by curve fitting to max inhibition of day zero growth using GeneData software analysis.
# GLS1 = GLS1 (Homo sapiens (Human), UniProt O94925); assay: GLS Enzyme Potency Assay (Glutamate Oxidase/AmplexRed coupled assay); assay type: biochemical
# Chain of GLS1 (O94925 63-669): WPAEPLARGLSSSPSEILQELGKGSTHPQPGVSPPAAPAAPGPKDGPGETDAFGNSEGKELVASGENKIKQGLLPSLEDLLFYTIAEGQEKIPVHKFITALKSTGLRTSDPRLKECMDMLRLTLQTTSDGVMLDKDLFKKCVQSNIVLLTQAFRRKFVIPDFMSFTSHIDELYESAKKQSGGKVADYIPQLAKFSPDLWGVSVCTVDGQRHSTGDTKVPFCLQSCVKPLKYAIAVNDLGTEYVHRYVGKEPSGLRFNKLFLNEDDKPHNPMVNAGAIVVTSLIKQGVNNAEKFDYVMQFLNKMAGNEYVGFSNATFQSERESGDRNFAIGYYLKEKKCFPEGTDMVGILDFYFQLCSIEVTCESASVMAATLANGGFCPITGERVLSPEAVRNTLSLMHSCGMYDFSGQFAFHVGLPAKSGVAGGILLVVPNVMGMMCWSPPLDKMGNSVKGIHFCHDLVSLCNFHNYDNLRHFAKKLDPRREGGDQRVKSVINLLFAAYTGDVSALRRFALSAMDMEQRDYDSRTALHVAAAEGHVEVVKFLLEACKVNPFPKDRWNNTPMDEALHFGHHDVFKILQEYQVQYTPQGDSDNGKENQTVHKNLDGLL
# Source text: as §1
# Assay a): GLS Enzyme Potency Assay
# A Glutamate Oxidase/AmplexRed coupled assay was used to measure the ability of compounds to bind to and inhibit the activity of GLS1 in vitro. […] GLS1 was diluted to 2× working concentration and incubated at room temperature to allow the tetrameric/dimeric forms to reach steady state. Assay measurements were performed in buffer comprising 50 mM TRIS pH 7.8, 100 mM NaPO4, pH 7.8, 0.001% v/v Tween20. Purified recombinant GLS1 protein was diluted in assay buffer to 12 nM and pre-incubated at room temperature for 30 minutes. […] DMSO concentration was maintained at 2% by back filling with DMSO solution. 3 μL of diluted GLS1 protein (12 nM) was then dispensed into each well using a BioRaptr automated dispenser (Beckman-Coulter) and incubated for 15 minutes at room temperature. 3 μL of 100 mM glutamine diluted in assay buffer was then added and the reaction incubated at room temperature for 60 minutes. […] An artefact version of the assay where the 6His tagged GLS protein and glutamine were replaced with assay buffer was also used to rule out non specific effects on the assay components.
# cellular GLS activity = cellular GLS activity (Homo sapiens (Human), UniProt O94925); assay: GLS Cell Potency Assay (PC3 coupled assay measuring cellular glutamate depletion); assay type: cell-based; settings: PC3 cells, 6 h incubation, glutamate depletion; read-out: Assay b) GLS cell MOA Mean IC50
# Chain of cellular GLS activity (O94925 73-669): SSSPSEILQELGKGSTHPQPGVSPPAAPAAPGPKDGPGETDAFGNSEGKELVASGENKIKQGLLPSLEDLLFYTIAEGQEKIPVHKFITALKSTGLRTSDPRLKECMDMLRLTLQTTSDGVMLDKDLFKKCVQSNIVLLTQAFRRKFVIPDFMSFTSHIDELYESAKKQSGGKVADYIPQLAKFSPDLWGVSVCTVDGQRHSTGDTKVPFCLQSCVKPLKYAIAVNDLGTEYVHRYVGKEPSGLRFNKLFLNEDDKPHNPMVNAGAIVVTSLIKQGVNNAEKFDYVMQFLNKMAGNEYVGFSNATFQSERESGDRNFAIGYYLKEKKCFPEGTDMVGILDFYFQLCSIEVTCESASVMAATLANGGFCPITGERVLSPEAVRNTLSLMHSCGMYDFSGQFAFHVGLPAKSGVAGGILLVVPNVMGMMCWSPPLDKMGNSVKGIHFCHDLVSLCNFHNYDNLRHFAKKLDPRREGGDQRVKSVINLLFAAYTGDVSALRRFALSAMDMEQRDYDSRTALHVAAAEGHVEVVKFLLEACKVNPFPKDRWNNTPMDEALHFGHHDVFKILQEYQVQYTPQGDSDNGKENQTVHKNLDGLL
# Source text: as §1
# Assay b): GLS Cell Potency Assay
# Compounds were assessed for their potential to inhibit cellular GLS activity by use of a PC3 coupled assay measuring cellular glutamate depletion. […] DMSO concentration was maintained at 0.3% by back filling with DMSO solution. PC3 cells were grown in phenol free DMEM, 10% dialyzed FCS, 2 mM glutamine and following dispersal by trypsinisation were plated at 5.6×10^3 cells per well in 40 μl of growth medium directly into the 384 well assay plates containing dispensed compound. After incubation for 6 h at 37° C., 5% CO2 growth media was aspirated and cells lysed in 15 μl of buffer containing 10 mM TRIS pH7.4, 100 mM NaCl, 1 mM EDTA, 1 mM EGTA, 1 mM NaF, 20 mM Na4P2O7, 2 mM Na3VO4, 1% Triton X-100, 10% glycerol, 0.1% SDS and 0.5% deoxycholate.
# [1] = NCI-H1703 cells, 5 days; read-out: Assay c) Prolif Mean IC50
# [2] = 6His tagged GLS protein (amino acids 63-669), glutamine substrate; read-out: Assay a) enz IC50
# [3] = Homo sapiens, NCI-H1703, 120 h, NCI-H1703 cells, 5 days; read-out: Assay c) Prolif Mean IC50
IC50 (NCI-H1703 cells; [1]),IC50 (GLS1; [2]),IC50 (cellular GLS activity),IC50 (GLS1; read-out: Assay a) enz IC50),IC50 (NCI-H1703 cells; [3]),SMILES
686 nM,1090 nM,63.2 nM,,,"CCOC(C(=O)Nc1nnc(N[C@@H]2CCN(c3ccc(F)nn3)C2)s1)c1ccc(F)cc1 (single isomer, unassigned) [Example 25]"
25.6 nM,,12.7 nM,334 nM,,"CO[C@H](C(=O)Nc1nnc(N[C@@H]2CCN(c3ccc(C)nn3)C2)s1)c1cccc(OC(F)(F)F)c1 (single isomer, unassigned) [7(b)]"
18.9 nM,148 nM,19.2 nM,,,"COc1ccc([C@H](OC)C(=O)Nc2nnc(N[C@@H]3CCN(c4cc(C)cnn4)C3)s2)cc1 (single isomer, unassigned) [Example 33(a)]"
,,,,3.09 nM,"CO[C@H](C(=O)Nc1nnc(N[C@@H]2CCN(c3ccc(F)nn3)C2)s1)c1cccc(OC(F)F)c1 [Example 9(a), (2S)-2-[3-(difluoromethoxy)phenyl]-N-[5-[[(3R)-1-(6-fluoropyridazin-3-yl)pyrrolidin-3-yl]amino]-1,3,4-thiadiazol-2-yl]-2-methoxy-acetamide]"
6.64 nM,79.2 nM,0.457 nM,,,"CCO[C@H](C(=O)Nc1nnc(N[C@@H]2CCN(c3ccc(C)nn3)C2)s1)c1cccc(OC)c1 (single isomer, unassigned) [Example 4(a)]"
55 nM,80.9 nM,2.74 nM,,,"CCOC(C(=O)Nc1nnc(N[C@@H]2CCN(c3ccc(C)nn3)C2)s1)c1ccc(OC)cc1 (single isomer, unassigned) [Example 16]"
44.1 nM,155 nM,2.78 nM,,,"CO[C@H](C(=O)Nc1nnc(N[C@@H]2CCN(c3ccc(C)nn3)C2)s1)c1ccc(F)cc1 (single isomer, unassigned) [Example 5(a)]"
106 nM,265 nM,197 nM,,,"COc1cc(C(OC)C(=O)Nc2nnc(N[C@@H]3CCN(c4ccc(F)nn4)C3)s2)ccc1F (single isomer, unassigned) [Example 23]"
37.9 nM,79.9 nM,2.35 nM,,,"COc1ccc([C@H](OC)C(=O)Nc2nnc(N[C@@H]3CCN(c4cc(C)cnn4)C3)s2)cc1 (single isomer, unassigned) [33(b)]"
1.74 nM,24.3 nM,0.251 nM,,,"COC(C(=O)Nc1nnc(N[C@@H]2CCN(c3ccc(F)nn3)C2)s1)c1cccc(OC(F)(F)F)c1 (single isomer, unassigned) [Example 17]"
43.7 nM,119 nM,5.29 nM,,,"COc1ccc(C(OC)C(=O)Nc2nnc(N[C@@H]3CCN(c4ccc(C)nn4)C3)s2)cc1 (stereo partly drawn) [Example 30, 2-methoxy-2-(4-methoxyphenyl)-N-[5-[[(3R)-1-(6-methylpyridazin-3-yl)pyrrolidin-3-yl]amino]-1,3,4-thiadiazol-2-yl]acetamide]"
5.48 nM,99.4 nM,1.3 nM,,,"CO[C@H](C(=O)Nc1nnc(N[C@@H]2CCN(c3ccc(C)nn3)C2)s1)c1cccc(OC(F)F)c1 (single isomer, unassigned) [8(a)]"
204 nM,,,,,"CO[C@H](C(=O)Nc1nnc(N[C@@H]2CCN(c3cc(C)cnn3)C2)s1)c1ccc(F)cc1 (single isomer, unassigned) [10(b)]"
4.59 nM,55.4 nM,0.566 nM,,,"COc1cccc([C@H](OC)C(=O)Nc2nnc(N[C@@H]3CCN(c4ccc(C)nn4)C3)s2)c1 (single isomer, unassigned) [Example 1(a)]"
129 nM,,10.5 nM,84.8 nM,,"COc1ccc([C@H](OC)C(=O)Nc2nnc(N[C@@H]3CCN(c4cc(Cl)cnn4)C3)s2)cc1 (single isomer, unassigned) [11(b)]"
,30.3 nM,0.965 nM,,16.7 nM,"CO[C@H](C(=O)Nc1nnc(N[C@@H]2CCN(c3ccc(F)nn3)C2)s1)c1ccccc1 [Example 2, (2S)-N-[5-[[(3R)-1-(6-Fluoropyridazin-3-yl)pyrrolidin-3-yl]amino]-1,3,4-thiadiazol-2-yl]-2-methoxy-2-phenyl-acetamide]"
1020 nM,,,975 nM,,"CO[C@H](C(=O)Nc1nnc(N[C@@H]2CCN(c3ccc(C)nn3)C2)s1)c1ccc(F)cc1 (single isomer, unassigned) [5(b)]"
20.9 nM,,,,,"COc1cc([C@H](OC)C(=O)Nc2nnc(N[C@@H]3CCN(c4ccc(C)nn4)C3)s2)ccc1F (single isomer, unassigned) [Example 6(a)]"
71.9 nM,55.7 nM,4.7 nM,,,"COC(C(=O)Nc1nnc(N[C@@H]2CCN(c3ccc(F)nn3)C2)s1)c1ccc(F)cc1 (single isomer, unassigned) [Example 19]"
117 nM,643 nM,22.1 nM,,,"CO[C@H](C(=O)Nc1nnc(N[C@@H]2CCN(c3ccc(C)nn3)C2)s1)c1cccc(OC(F)F)c1 (single isomer, unassigned) [8(b)]"
454 nM,,137 nM,406 nM,,"COc1cccc([C@H](OC)C(=O)Nc2nnc(N[C@@H]3CCN(c4ccc(C)nn4)C3)s2)c1 (single isomer, unassigned) [Example 1(b)]"
,35.3 nM,0.451 nM,,3.07 nM,"CO[C@H](C(=O)Nc1nnc(N[C@@H]2CCN(c3cc(Cl)cnn3)C2)s1)c1ccccc1 [Example 12, (2S)-N-[5-[[(3R)-1-(5-Chloropyridazin-3-yl)pyrrolidin-3-yl]amino]-1,3,4-thiadiazol-2-yl]-2-methoxy-2-phenyl-acetamide]"
,,,,469 nM,"CO[C@@H](C(=O)Nc1nnc(N[C@@H]2CCN(c3ccc(F)nn3)C2)s1)c1cccc(OC(F)F)c1 [9(b), (2R)-2-[3-(difluoromethoxy)phenyl]-N-[5-[[(3R)-1-(6-fluoropyridazin-3-yl)pyrrolidin-3-yl]amino]-1,3,4-thiadiazol-2-yl]-2-methoxy-acetamide]"
926 nM,,,,,"COc1cc([C@H](OC)C(=O)Nc2nnc(N[C@@H]3CCN(c4ccc(C)nn4)C3)s2)ccc1F (single isomer, unassigned) [6(b)]"
54.4 nM,15.9 nM,,,,"COc1ccc([C@H](OC)C(=O)Nc2nnc(N[C@@H]3CCN(c4cc(Cl)cnn4)C3)s2)cc1 (single isomer, unassigned) [Example 11(a)]"
1210 nM,,,,,"CO[C@H](C(=O)Nc1nnc(N[C@@H]2CCN(c3cc(C)cnn3)C2)s1)c1ccc(F)cc1 (single isomer, unassigned) [Example 10(a)]"
,,,,3.62 nM,"COc1cccc([C@H](OC)C(=O)Nc2nnc(N[C@@H]3CCN(c4ccc(F)nn4)C3)s2)c1 [Example 3, (2S)-N-[5-[[(3R)-1-(6-Fluoropyridazin-3-yl)pyrrolidin-3-yl]amino]-1,3,4-thiadiazol-2-yl]-2-methoxy-2-(3-methoxyphenyl)acetamide]"
586 nM,1280 nM,,,,"COc1ccc(C(OC)C(=O)Nc2nnc(N[C@@H]3CCN(c4ccc(C)nn4)C3)s2)cc1 (stereo partly drawn) [Example 29, 2-methoxy-2-(4-methoxyphenyl)-N-[5-[[(3R)-1-(6-methylpyridazin-3-yl)pyrrolidin-3-yl]amino]-1,3,4-thiadiazol-2-yl]acetamide]"

# From US9938265B2, “1,3,4-thiadiazole compounds and their use in treating cancer” (AstraZeneca AB, priority 2015, dated 2018)
